Reference: paper PMC7785020, “A unique hormonal recognition feature of the human glucagon-like peptide-2 receptor” (Cell Research, 2020)
Positions count from the first letter of the chain named.

How the values were obtained:
Design in all cases: WT (1–553); expressed in transfected cells
GLP-2R W249^ECL1A = target: T1, GLP-2R W249^ECL1A (Homo sapiens, UniProt O95838, W249A); experiment: radioligand competition binding, W249^ECL1A; conditions: COS-7, W249^ECL1A; [^125I]GLP-2(1–33, M10Y) 10–15 pM, 4 h, 4 °C; mean ± SEM, n ≥ 3 in duplicate
T1 sequence (O95838 1-553 W249A): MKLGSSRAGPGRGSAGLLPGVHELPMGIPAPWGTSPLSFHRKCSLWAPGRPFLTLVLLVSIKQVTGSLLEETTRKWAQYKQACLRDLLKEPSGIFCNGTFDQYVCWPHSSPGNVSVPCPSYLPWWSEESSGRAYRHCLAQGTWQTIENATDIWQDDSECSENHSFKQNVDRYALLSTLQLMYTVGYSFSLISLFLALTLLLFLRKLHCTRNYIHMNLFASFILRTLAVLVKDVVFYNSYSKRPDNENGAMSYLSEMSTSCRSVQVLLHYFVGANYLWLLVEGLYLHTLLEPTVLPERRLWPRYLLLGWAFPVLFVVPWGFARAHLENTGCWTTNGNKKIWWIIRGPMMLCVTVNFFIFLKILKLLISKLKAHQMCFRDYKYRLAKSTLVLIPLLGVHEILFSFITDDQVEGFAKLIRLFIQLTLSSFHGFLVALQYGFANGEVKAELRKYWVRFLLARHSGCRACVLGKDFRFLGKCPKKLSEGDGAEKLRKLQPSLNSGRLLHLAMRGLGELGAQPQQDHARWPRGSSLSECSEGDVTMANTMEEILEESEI
Procedure: (§1) A stepwise oxidation reaction was performed by addition of 6 aliquots of 5 µL ChloramineT (30 µL/mL) with a 1-min interval during constant stirring. The reaction was terminated by the addition of 400 µL phase A (0.1% trifluoracetic acid) before being fractionated into 1 mL volume by reverse-phase high-performance liquid chromatography (RP-HPLC, Waters 600 SimiPrep system) on a C18 column. The iodinated protein was […] by increasing concentrations of phase B (Acetonitrile + 0.1% TFA) and tested for competitive binding ability.
(§2) One day before transfection, the COS-7 cells were seeded in 75 cm^2 culture flasks (3 million cells/flask) in DMEM, containing 3.9 g/L NaHCO3 and supplemented with 10% FBS, 1% L-glutamine, 180 units/mL penicillin and 45 µg/mL streptomycin. After an overnight culture at 37 °C, 10% CO2 and 95% air humidity, the cells were transiently transfected with different GLP-2R constructs or pcDNA3.1 vector as previously described.[52] Following 24-h incubation, the cells were transferred to Costa® microtiter plates (150,000 cells/well, PerkinElmer) to achieve a 5%–10% specific binding. […] The cells were then washed twice in binding buffer (4 °C), lysed and counted for radioactivity using a Wallac Gamma Counter (PerkinElmer).

GLP-2R Y186^1.47A = target: T2, GLP-2R Y186^1.47A (Homo sapiens, UniProt O95838, Y186A); experiment: radioligand competition binding, Y186^1.47A; conditions: COS-7, Y186^1.47A; [^125I]GLP-2(1–33, M10Y) 10–15 pM, 4 h, 4 °C; n ≥ 3 in duplicate
T2 sequence (O95838 1-553 Y186A): T1 sequence (O95838 1-553 W249A) with Y186A, A249W
Procedure: as §1, §2

GLP-2R D244^ECL1A = target: T3, GLP-2R D244^ECL1A (Homo sapiens, UniProt O95838, D244A); experiment: radioligand competition binding, D244^ECL1A; conditions: COS-7, D244^ECL1A; [^125I]GLP-2(1–33, M10Y) 10–15 pM, 4 h, 4 °C; mean ± SEM, n ≥ 3 in duplicate
T3 sequence (O95838 1-553 D244A): T1 sequence (O95838 1-553 W249A) with D244A, A249W
Procedure: as §1, §2

| Structure (SMILES) | % Binding of WT (GLP-2R W249^ECL1A) | % Binding of WT (GLP-2R Y186^1.47A) | % Binding of WT (GLP-2R D244^ECL1A) |
| --- | --- | --- | --- |
| CC[C@H](C)[C@H](NC(=O)[C@H](Cc1ccccc1)NC(=O)[C@H](CC(=O)O)NC(=O)[C@H](CCCNC(=N)N)NC(=O)[C@H](C)NC(=O)[C@H](C)NC(=O)[C@H](CC(C)C)NC(=O)[C@H](CC(N)=O)NC(=O)[C@H](CC(=O)O)NC(=O)[C@H](CC(C)C)NC(=O)[C@@H](NC(=O)[C@@H](NC(=O)[C@H](CC(N)=O)NC(=O)[C@H](CCSC)NC(=O)[C@H](CCC(=O)O)NC(=O)[C@H](CC(=O)O)NC(=O)[C@H](CO)NC(=O)[C@H](Cc1ccccc1)NC(=O)[C@H](CO)NC(=O)CNC(=O)[C@H](CC(=O)O)NC(=O)[C@H](C)NC(=O)[C@@H](N)Cc1c[nH]cn1)[C@@H](C)O)[C@@H](C)CC)C(=O)N[C@@H](CC(N)=O)C(=O)N[C@@H](Cc1c[nH]c2ccccc12)C(=O)N[C@@H](CC(C)C)C(=O)N[C@H](C(=O)N[C@@H](CCC(N)=O)C(=O)N[C@H](C(=O)N[C@@H](CCCCN)C(=O)N[C@H](C(=O)N[C@H](C(=O)N[C@@H](CC(=O)O)C(=O)O)[C@@H](C)O)[C@@H](C)CC)[C@@H](C)O)[C@@H](C)CC [Human GLP-2 (1–33)] | 2.2 ± 1.2 % | N.B. | 69.1 ± 4.9 % |
| CC[C@H](C)[C@H](NC(=O)[C@H](Cc1ccccc1)NC(=O)[C@H](CC(=O)O)NC(=O)[C@H](CCCNC(=N)N)NC(=O)[C@H](C)NC(=O)[C@H](C)NC(=O)[C@H](CC(C)C)NC(=O)[C@H](CC(N)=O)NC(=O)[C@H](CC(=O)O)NC(=O)[C@H](CC(C)C)NC(=O)[C@@H](NC(=O)[C@@H](NC(=O)[C@H](CC(N)=O)NC(=O)[C@H](CCSC)NC(=O)[C@H](CCC(=O)O)NC(=O)[C@H](CC(=O)O)NC(=O)[C@H](CO)NC(=O)[C@H](Cc1ccccc1)NC(=O)[C@H](CO)NC(=O)CNC(=O)[C@H](CC(=O)O)NC(=O)CNC(=O)[C@@H](N)Cc1c[nH]cn1)[C@@H](C)O)[C@@H](C)CC)C(=O)N[C@@H](CC(N)=O)C(=O)N[C@@H](Cc1c[nH]c2ccccc12)C(=O)N[C@@H](CC(C)C)C(=O)N[C@H](C(=O)N[C@@H](CCC(N)=O)C(=O)N[C@H](C(=O)N[C@@H](CCCCN)C(=O)N[C@H](C(=O)N[C@H](C(=O)N[C@@H](CC(=O)O)C(=O)O)[C@@H](C)O)[C@@H](C)CC)[C@@H](C)O)[C@@H](C)CC [Teduglutide] | 2.9 ± 2.0 % | N.B. | 77.5 ± 5.7 % |
